The text below walks through data of PubChem BioAssay (NCI).

Test in all cases: growth of human tumour cells (NCI), 48 h
The test system of assay [1] is DLD-1 colon.
Assay [2] deals with 786-0 renal.
The test system of assay [3] is LXFL 529 NSCLC.
For assay [4], the system named is UACC-62 melanoma.
Assay [5] deals with KM12 colon.
For assay [6], the system named is XF 498 CNS.
Assay [7] relates to HOP-62 NSCLC.
The test system of assay [8] is DMS 114 small cell lung.
Assay [9] deals with M19-MEL melanoma.
In assay [10] the test system is KM20L2 colon.
The subject of assay [11] is DMS 273 small cell lung.
Assay [12] deals with SNB-78 CNS.
The test system of assay [13] is RXF 393 renal.
For assay [14], the system named is HOP-18 NSCLC.
In assay [15] the test system is RXF-631 renal.

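Results reflect a 48-hour exposure of cells in 96-well plates to compound at five concentrations. TGI denotes the concentration required for complete inhibition of growth.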 Where a SMILES comes first, the peptide text is derived from it. [ ]: non-standard residue; d: D form. The star is where a group is joined. ξ: configuration not given here. NMeF = CN[CH](Cc1ccccc1)C(=O)O; ξNMe2Val = CC(C)C(C(=O)*)N(C)C; NMeV = CN[CH](C(=O)O)C(C)C; ξNMeV = CNC(C(=O)O)C(C)C; Boc = CC(C)(C)OC(=O)*; OBn = c1ccc(CO*)cc1; OtBu = CC(C)(C)O*

As for `COc1ccc([C@H]2CC3C(=O)N(c4ccc(OC)cc4)C(=O)C3c3[nH]c4ccccc4c32)cc1` (stereo not given in full), the TGI is > 100 µM in assay [1]; 47.7 µM in [2]; > 100 µM in assay [3]; > 100 µM in [4]; > 100 µM in [5]; 95.9 µM in assay [6]. Besides, the TGI in assay [7], in [8], in assay [9], in [10], in assay [11] and in assay [12] was > 100 µM each time.
For `CC(C)C(C(=O)N(C)[C@H](C(=O)N1CCC[C@H]1C(=O)N(C)[C@@H](Cc1ccccc1)C(=O)OCc1ccccc1)C(C)C)N(C)C(=O)[C@@H](NC(=O)OC(C)(C)C)C(C)C` (stereo not given in full) (Boc-V[ξNMeV][NMeV]P[NMeF]-OBn), the TGI in assay [1] is > 31.6 µM; in assay [2], > 71.3 µM; in [3], > 100 µM; in [4] it was > 31.6 µM; in assay [6], > 31.6 µM; in [7], > 31.6 µM. Moreover, the TGI in assay [13], in [8], in [9], in assay [10], in assay [11] and in assay [12] was > 31.6 µM each time. Further, the TGI in assay [14] is > 100 µM.
Turning to `Brc1ccc(-c2cc3c(cc2C2SCCS2)OCO3)cc1`, the TGI in assay [1], in assay [2], in assay [3], in assay [5], in assay [6] and in [7] was > 100 µM throughout. Moreover, the TGI in [13] is 77.2 µM; in assay [8], > 100 µM; in assay [9], > 100 µM; in assay [10], > 100 µM; in assay [11] it was > 100 µM; in [12], > 100 µM. For the same molecule, in assay [14], the TGI is > 100 µM.
As for `O=C(NC1=C(Cl)C(=O)c2ccccc2C1=O)C(=O)C(C(=O)c1ccc2ccccc2c1)C1OC(=O)c2ccccc21` (stereo not given), the TGI turned out to be 16.9 µM in assay [1]; 20.6 µM in assay [2]; 17.7 µM in assay [3]; 4.31 µM in assay [4]; 13.7 µM in [5]; 20.2 µM in assay [7]. Moreover, the TGI in assay [13] worked out at 12.8 µM; in assay [8] it was 15.1 µM; in assay [9], 0.856 µM; in assay [10] it was 18.6 µM; in assay [12], 15.4 µM.
Consider `Cc1nn2c(c1C#N)NNc1c-2sc(=N)nnc1=O`, for which the TGI in [1], in [2], in assay [3], in [4], in assay [5] and in assay [7] was > 100 µM throughout. Besides, the TGI in assay [13], in [9], in assay [10] and in [14] was > 100 µM each time.
In the case of `CC(C)C(C(=O)N(C)C(Cc1ccccc1)C(=O)N(C)C(C(=O)N(C)C(C(=O)N1CCCC1C(=O)OC(C)(C)C)C(C)C)C(C)C)N(C)C` (stereo not given) (ξNMe2Val-[NMeF][NMeV][NMeV]P-OtBu; configuration not given here), the TGI in assay [2] is > 100 µM; in [3], > 100 µM; in assay [4], > 100 µM; in assay [5], > 100 µM; in assay [6], 86.1 µM; in [7], > 100 µM. For the same molecule, the TGI in [8] is > 100 µM; in [9], > 100 µM; in assay [10], 46.4 µM; in assay [11], 84.1 µM.
On to `CCCCCCCCCCCC[N+]12CC[N+](C)(CC1)CC2`, for which the TGI in assay [1] is > 100 µM; in assay [2], 26.8 µM; in [3], > 100 µM; in assay [4], > 100 µM; in assay [5], 20.7 µM; in [6], 80 µM. Moreover, the TGI in assay [7] is > 100 µM; in assay [13] it was 3.34 µM; in [8], 44.6 µM; in [9], 70.9 µM; in [10] it was 85.9 µM; in assay [11] it was 15.1 µM. Besides, the TGI was 76 µM in assay [12] and > 100 µM in assay [14].
As to `N#COc1ccc(Oc2ccc(OC#N)cc2)cc1`, the TGI in assay [1], in [2], in [3], in assay [15], in [4] and in assay [5] was > 100 µM in each case. Besides, the TGI was > 100 µM in assay [6]; > 100 µM in assay [7]; > 100 µM in [13]; 92.7 µM in [8]; > 100 µM in [9]; > 100 µM in [10]. Also, the TGI in assay [12] and in assay [14] was > 100 µM in each case.
In the case of `CSC(C1c2ccccc2N(C)c2[nH]c(=O)n(C)c(=O)c21)S(=O)(=O)c1ccc(C)cc1` (stereo not given), the TGI in assay [1], in [2], in assay [3], in assay [4], in assay [6] and in assay [7] was > 100 µM throughout. For the same molecule, the TGI in assay [8], in [9], in assay [11], in assay [12] and in [14] was > 100 µM in each case.
`CC(=O)OCC1OC(N=[N+]=[N-])C(OC(C)=O)C(OC(C)=O)C1OC1OC(COC(C)=O)C(OC(C)=O)C(OC(C)=O)C1OC(C)=O` (stereo not given): the TGI in [2], in assay [3], in assay [15], in assay [4], in assay [5] and in [6] was > 100 µM throughout. Further, the TGI in [13], in assay [8], in assay [9], in assay [10], in assay [11] and in [12] was > 100 µM in each case.
